BigSolDB 2.1

Details: in water

SMILES	solubility (mole fraction) (298.15 K)	solubility (mole fraction) (303.15 K)	solubility (mole fraction) (308.15 K)	solubility (mole fraction) (313.15 K)	solubility (mole fraction) (318.15 K)	solubility (mole fraction) (323.15 K)
CC(C)=CCCC(C)CCO (stereo not drawn)	0.000218	0.000187	0.000187	0.000208	0.000249	0.000308
Cc1ccc(C(C)C)cc1O	0.000144	0.000155	0.000164	0.000169	0.00017	0.000172
CC(C)=CCC/C(C)=C/CO	0.000103	0.000139	0.000375	0.000643	0.000922	0.00127
C=CCc1ccc(O)c(OC)c1	0.000228	0.00023	0.000254	0.000254	0.000286	0.000312
Cc1ccc(C(C)C)cc1	4.8e-06	6.9e-06	9.9e-06	1.24e-05	1.51e-05	1.89e-05
C=CC(C)(O)CCC=C(C)C (stereo not drawn)	0.000181	0.000332	0.000472	0.000592	0.000844	0.00111
Cc1ccc(C)cc1	2.62e-05		3.07e-05			3.65e-05
Cc1ccccc1	0.000113		0.000118	0.00012		0.000126
